Values belong to the molecule of their own block, whether it stands above or below them.
Assay: gradient 5% acetonitrile 3 min, to 50% in 2 min, to 85% in 15 min, held 3 min, 100 µL/min
Conditions: column: Zorbax Extend-C18 2.1 x 50 mm; eluents: water / acetonitrile, 0.1% formic acid
Method in brief: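 Each retention time is based on an adduct peak selected computationally and verified by manual inspection. Measurements used HPLC–quadrupole time-of-flight mass spectrometry in positive and negative ionization mode on mixtures of ~100 pure standards. Chromatography ran on a Zorbax Extend-C18 column (2.1 × 50 mm, 1.8 μm) at 100 μL/min with water and acetonitrile, each containing 0.1% formic acid, and dead and dwell volumes of 40 μL and 900 μL.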

Structure (SMILES): O=C(c1ccco1)N1CCN(S(=O)(=O)CCCOc2ccc3c(c2)OCO3)CC1
RP-LC retention time: 764 s

Structure (SMILES): CCc1nnc(NC(=O)CSc2nc3c(c(=O)n2CCOC)SC(C)C3)s1 (centres undefined)
RP-LC retention time: 664 s

Structure (SMILES): O=C(NCc1ccc(F)c(Cl)c1)C1=C2CCCN2c2ccc(F)cc2S1(=O)=O
RP-LC retention time: 934 s

Structure (SMILES): COc1ccccc1C1(CNC(=O)Nc2cccc(Cl)c2)CCOCC1
RP-LC retention time: 867 s

Structure (SMILES): CC(CNC(=O)CN1C(=O)CCCc2ccccc21)c1ccccc1 (centres undefined)
RP-LC retention time: 836 s

Structure (SMILES): COc1ccc(-c2nnc(COc3ccc(NC(=O)Cc4cccs4)cc3)o2)cc1
RP-LC retention time: 900 s

Structure (SMILES): C[C@@H]1O[C@@H](O[C@H]2C(Oc3cc(O)c4c(=O)c(O)c(-c5ccc(O)cc5)oc4c3)O[C@H](CO)[C@@H](O)[C@@H]2O)[C@H](O)[C@H](O)[C@H]1O (some centres undefined)
RP-LC retention time: 677 s

Structure (SMILES): CCCCC(=O)Nc1cc(C(=O)O)ccc1N(C)CCc1c(C)nn(C)c1C
RP-LC retention time: 596 s

Structure (SMILES): Cc1ccc(NC(=O)c2ccc3c(c2)N(CC(=O)N2CCCC2)C(=O)CO3)nc1
RP-LC retention time: 619 s

Structure (SMILES): O=C(CSc1nnc2c(=O)n(-c3ccc(Br)cc3)ccn12)c1ccccc1
RP-LC retention time: 866 s

Structure (SMILES): Cc1cn(C)c(CC(=O)NCCN2CCCCC2)c1C(=O)O
RP-LC retention time: 578 s

Structure (SMILES): COc1cccc(C(=O)NC2CCN(c3cc(-c4ccc(Cl)cc4)[nH]n3)C2)c1OC (centres undefined)
RP-LC retention time: 807 s

Structure (SMILES): CCN(CC)S(=O)(=O)c1ccc2nc(NCc3cc(F)cc(F)c3)cnc2c1
RP-LC retention time: 1060 s

Structure (SMILES): CCN1C(=O)c2cccnc2Sc2cc(CNC(=O)c3cccs3)ccc21
RP-LC retention time: 737 s

Structure (SMILES): CCN1C(=O)c2cccnc2Sc2cc(NC(=O)c3ccccc3)ccc21
RP-LC retention time: 812 s

Structure (SMILES): O=C(NCc1ccccc1F)C1CCN(c2cc(N3CCCCC3)ncn2)CC1
RP-LC retention time: 680 s

Structure (SMILES): CCCN(C(C)=O)c1nc(-c2ccc(C3CCCCC3)cc2)cs1
RP-LC retention time: 748 s

Structure (SMILES): O=C(CSc1ccc(F)cc1)NCC1(c2ccc(F)cc2)CC1
RP-LC retention time: 909 s

Structure (SMILES): Cc1nnc2c(=O)n(CC(=O)NC(C)c3ccccc3)c3cccnc3n12 (centres undefined)
RP-LC retention time: 988 s

Now from value to molecule:

RP-LC retention time: 923 s
Structure (SMILES): CCOc1ccc(OCC)c(N2C=C(C#N)S(=O)(=O)c3c(F)cccc32)c1

RP-LC retention time: 575 s
Structure (SMILES): CN(C)C(=O)c1ccc2c(c1)nc(CN1CCN(C(=O)c3ccco3)CC1)n2C

RP-LC retention time: 616 s
Structure (SMILES): CCn1c(CCNC(=O)c2cccc(F)c2)nc2cccnc21

RP-LC retention time: 1050 s
Structure (SMILES): Cc1ccc(CNC(=O)C2(C)CCN(S(=O)(=O)c3ccc(C)c(C)c3)CC2)cc1

RP-LC retention time: 843 s
Structure (SMILES): O=C(Nc1cccc(Br)c1)c1cc(-c2ccccn2)n[nH]1

RP-LC retention time: 1080 s
Structure (SMILES): Cc1cccc(NC(=O)N2CCc3nc(-c4ccc(Cl)cc4)ncc3C2)c1

RP-LC retention time: 599 s
Structure (SMILES): Cc1noc(C)c1CC(=O)N1C[C@H]2C[C@H](C1)[C@H]1CCCC(=O)N1C2

RP-LC retention time: 626 s
Structure (SMILES): CCOc1cc(C2c3c(n[nH]c3C)C(=O)N2C)ccc1O (centres undefined)

RP-LC retention time: 658 s
Structure (SMILES): O=C(NCC1CCCO1)C1CCN(C(=O)c2ncn3c2COC(c2ccc(F)cc2)C3)CC1 (centres undefined)

RP-LC retention time: 610 s
Structure (SMILES): CCOC(=O)/C=C/c1c(C)[nH]c(=O)[nH]c1=O

RP-LC retention time: 663 s
Structure (SMILES): CC1CCN(CCNC(=O)c2nnc(-c3ccc(S(=O)(=O)N4CCCCC4)cc3)o2)CC1

RP-LC retention time: 565 s
Structure (SMILES): CC(C)CCN1CCC(N2CCN(CCc3ccccc3)CC2)C1=O (centres undefined)

RP-LC retention time: 636 s
Structure (SMILES): Cc1ccc(C(=O)N(CCc2cscn2)Cc2cccnc2)cc1C

RP-LC retention time: 689 s
Structure (SMILES): CCC(Sc1nc2ccccc2[nH]1)C(=O)Nc1nnc(C)s1 (centres undefined)

RP-LC retention time: 771 s
Structure (SMILES): COc1ccc(CNC(=O)N2C[C@@H]3CN(S(=O)(=O)c4cccc(F)c4)C[C@H](C2)O3)cc1

RP-LC retention time: 829 s
Structure (SMILES): CC(C)c1ccc(NC(=O)C2CCCN(c3cc(=O)n(C)c(=O)n3C)C2)cc1 (centres undefined)

RP-LC retention time: 680 s
Structure (SMILES): COCCN1C(=O)[C@H]2CN(Cc3ccc(F)c(Br)c3)C[C@H]2C1=O

RP-LC retention time: 726 s
Structure (SMILES): O=C(Cc1cccc(F)c1)Nc1nnc(C2CC(=O)N(c3ccc(F)cc3)C2)o1 (centres undefined)

RP-LC retention time: 828 s
Structure (SMILES): COc1ccccc1-c1cc(C(N)=O)c2cccc(C)c2n1

RP-LC retention time: 788 s
Structure (SMILES): COc1ccc(NC(=O)Cn2cccc(-c3nc(-c4ccc(OC)c(OC)c4)no3)c2=O)c(OC)c1

RP-LC retention time: 1150 s
Structure (SMILES): Cc1nn(-c2nc(-c3ccc(F)cc3)cs2)c(C)c1CC(=O)Nc1ccccc1

RP-LC retention time: 663 s
Structure (SMILES): CCOC(=O)C1CCN(C(=O)C2CCN(c3cnc4nccnc4c3)CC2)CC1

RP-LC retention time: 957 s
Structure (SMILES): COc1ccccc1-c1noc(C2CCCN2C(=O)Nc2cc(C)cc(C)c2)n1 (centres undefined)

RP-LC retention time: 919 s
Structure (SMILES): CSc1ccccc1NC(=O)Cc1cc(-c2ccc(F)cc2)on1

RP-LC retention time: 631 s
Structure (SMILES): C=CCN1CCN(c2nc3cc(C(=O)OC)ccc3c(=O)n2-c2ccc(OC)c(OC)c2)CC1

Source: the METLIN SMRT retention time set (Domingo-Almenara et al. 2019)
